The experiment has as its target purified human MMP-12 enzyme (Homo sapiens, UniProt P39900). Nature of the experiment: MMP-12 FRET assay. The format is biochemical. The conditions noted are these: substrate 20 μM, room temperature. In a few lines: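 Enzyme pre-incubated 30 min at room temperature with compound in 50 mM HEPES pH 7.4, 100 mM NaCl, 5 mM CaCl2, 0.005% Brij-35, 10% DMSO final. Reaction started with 20 μM MCA-Pro-Leu-Gly-Leu-Dpa(DNP)-Ala-Arg, and initial cleavage rate read over 30 min (λex 325, λem 395 nm). IC50 from slope-factor inhibition fit.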
Chain of purified human MMP-12 enzyme (P39900 106-470): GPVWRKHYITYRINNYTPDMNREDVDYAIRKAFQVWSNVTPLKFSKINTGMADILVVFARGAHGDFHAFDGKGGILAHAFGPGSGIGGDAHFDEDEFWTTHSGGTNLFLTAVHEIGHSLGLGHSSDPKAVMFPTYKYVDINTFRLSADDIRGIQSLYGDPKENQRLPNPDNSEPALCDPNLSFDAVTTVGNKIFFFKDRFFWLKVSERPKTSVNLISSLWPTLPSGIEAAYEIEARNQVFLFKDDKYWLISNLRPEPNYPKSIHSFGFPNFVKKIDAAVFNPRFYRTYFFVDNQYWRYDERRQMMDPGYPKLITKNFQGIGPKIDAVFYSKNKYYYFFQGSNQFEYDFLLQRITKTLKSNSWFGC
Regarding `CC(C)[C@H](NS(=O)(=O)c1ccc2c(c1)oc1ccc(-c3cc(Cl)oc3Cl)cc12)C(=O)O` [Compound 95, (S)-2-(8-(2,5-dichlorofuran-3-yl)dibenzo[b,d]furan-3-sulfonamido)-3-methylbutanoic acid], the IC50 was < 1.5 nM.
In the case of `CC(C)[C@H](NS(=O)(=O)c1ccc2c(c1)sc1ccc(-c3ccco3)cc12)C(=O)O` [Compound 53, (S)-2-(8-(furan-2-yl)dibenzo[b,d]thiophene-3-sulfonamido)-3-methylbutanoic acid] it was 43 nM; in that of `CC(C)[C@H](NS(=O)(=O)c1ccc2oc3cc(-c4ccc(C(C)(C)C)o4)ccc3c2c1)C(=O)O` [Compound 241, (S)-2-(7-(5-tert-butylfuran-2-yl)dibenzo[b,d]furan-2-sulfonamido)-3-methylbutanoic acid], 170 nM.
Then `CC(C)Cn1cc(-c2ccc3c(c2)oc2ccc(S(=O)(=O)N[C@@H](C(=O)O)C(C)C)cc23)cn1` [Compound 173, (R)-2-(7-(1-isobutyl-1H-pyrazol-4-yl)dibenzo[b,d]furan-2-sulfonamido)-3-methylbutanoic acid], with 80 nM; and `C/C=C\c1ccc2oc3cc(S(=O)(=O)N[C@H](C(=O)O)C(C)C)ccc3c2c1` [Compound 67, (S,Z)-3-methyl-2-(8-(prop-1-enyl)dibenzo[b,d]furan-3-sulfonamido)butanoic acid], with < 1.5 nM; and `COc1ncc(-c2ccc3oc4cc(S(=O)(=O)N[C@H](C(=O)O)C(C)C)ccc4c3c2)cn1` [Compound 153, (S)-2-(8-(2-methoxypyrimidin-5-yl)dibenzo[b,d]furan-3-sulfonamido)-3-methylbutanoic acid], with < 1.5 nM.
For `CCc1ccc(-c2ccc3c(c2)oc2ccc(S(=O)(=O)N[C@H](C(=O)O)C(C)C)cc23)s1` [Compound 242, (S)-2-(7-(5-ethylthiophen-2-yl)dibenzo[b,d]furan-2-sulfonamido)-3-methylbutanoic acid], the half-maximal inhibitory concentration (IC50) was determined as 8.4 nM.
In the case of `CC(C)[C@@H](NS(=O)(=O)c1ccc2oc3cc(-c4nc5c(F)cccc5s4)ccc3c2c1)C(=O)O` [Compound 299, (R)-2-(7-(4-fluorobenzo[d]thiazol-2-yl)dibenzo[b,d]furan-2-sulfonamido)-3-methylbutanoic acid], 15 nM corresponded to half-maximal inhibition (IC50). This IC50 lies about 1.8-fold higher than the previous one.
Then `Cc1nc(CC(C)C)sc1-c1ccc2c(c1)oc1cc(S(=O)(=O)N[C@H](C(=O)O)C(C)C)ccc12` [Compound 235, (S)-2-(7-(2-isobutyl-4-methylthiazol-5-yl)dibenzo[b,d]furan-3-sulfonamido)-3-methylbutanoic acid], with 11 nM; and `CC(C)[C@H](NS(=O)(=O)c1ccc2c(c1)oc1cc(-c3nc4ccc(C(F)(F)F)cc4s3)ccc12)C(=O)O` [Compound 236, (S)-3-methyl-2-(7-(6-(trifluoromethyl)benzo[d]thiazol-2-yl)dibenzo[b,d]furan-3-sulfonamido)butanoic acid], with 12 nM.
In the case of `Cc1nn(C)c(C)c1-c1ccc2oc3cc(S(=O)(=O)N[C@H](C(=O)O)C(C)C)ccc3c2c1` [Compound 160, (S)-3-methyl-2-(8-(1,3,5-trimethyl-1H-pyrazol-4-yl)dibenzo[b,d]furan-3-sulfonamido)butanoic acid] it was 22 nM; in that of `CC(C)[C@H](NS(=O)(=O)c1ccc2c(c1)sc1ccc(-c3ccsc3)cc12)C(=O)O` [Compound 26, (S)-3-methyl-2-(8-(thiophen-3-yl)dibenzo[b,d]thiophene-3-sulfonamido)butanoic acid], 38 nM; in that of `CC(C)[C@@H](NS(=O)(=O)c1ccc2oc3cc(-c4noc(CC(C)(C)C)n4)ccc3c2c1)C(=O)O` [Compound 189, (R)-3-methyl-2-(7-(5-neopentyl-1,2,4-oxadiazol-3-yl)dibenzo[b,d]furan-2-sulfonamido)butanoic acid], 4.5 nM.
Then `CC(C)CCn1cc(-c2ccc3oc4cc(S(=O)(=O)N[C@H](C(=O)O)C(C)C)ccc4c3c2)cn1` [Compound 20, (S)-2-(8-(1-isopentyl-1H-pyrazol-4-yl)dibenzo[b,d]furan-3-sulfonamido)-3-methylbutanoic acid], with 4 nM; and `CC(C)[C@@H](NS(=O)(=O)c1ccc2oc3cc(-c4noc(C5CCCCC5)n4)ccc3c2c1)C(=O)O` [Compound 192, (R)-2-(7-(5-cyclohexyl-1,2,4-oxadiazol-3-yl)dibenzo[b,d]furan-2-sulfonamido)-3-methylbutanoic acid], with 7.2 nM; and `CC(C)[C@@H](NS(=O)(=O)c1ccc2sc3cc(-c4nccs4)ccc3c2c1)C(=O)O` [Compound 285, (R)-3-methyl-2-(7-(thiazol-2-yl)dibenzo[b,d]thiophene-2-sulfonamido)butanoic acid], with 220 nM.
`Cc1csc(-c2ccc3oc4cc(S(=O)(=O)N[C@H](C(=O)O)C(C)C)ccc4c3c2)c1` [Compound 33, (S)-3-methyl-2-(8-(4-methylthiophen-2-yl)dibenzo[b,d]furan-3-sulfonamido)butanoic acid]: the concentration for half-maximal inhibition (IC50) is < 1.5 nM.
`CC(C)[C@@H](NS(=O)(=O)c1ccc2sc3cc(-c4nc5ccccc5s4)ccc3c2c1)C(=O)O` [Compound 286, (R)-2-(7-(benzo[d]thiazol-2-yl)dibenzo[b,d]thiophene-2-sulfonamido)-3-methylbutanoic acid] came in with an IC50 of 130 nM.
Then `CC(C)[C@H](NS(=O)(=O)c1ccc2c(c1)sc1cc(-c3ccco3)ccc12)C(=O)O` [Compound 193, (S)-2-(7-(furan-2-yl)dibenzo[b,d]thiophene-3-sulfonamido)-3-methylbutanoic acid], with < 1.5 nM; and `CC(C)[C@H](NS(=O)(=O)c1ccc2c(c1)oc1ccc(-c3ncc(Cl)s3)cc12)C(=O)O` [Compound 224, (S)-2-(8-(5-chlorothiazol-2-yl)dibenzo[b,d]furan-3-sulfonamido)-3-methylbutanoic acid], with < 1.5 nM; and `CC(C)[C@@H](NS(=O)(=O)c1ccc2c(c1)sc1cc(-c3ccccc3)ccc12)C(=O)O` [Compound 314, (R)-3-methyl-2-(7-phenyldibenzo[b,d]thiophene-3-sulfonamido)butanoic acid], with 2.6 nM.
As to `CC(C)[C@@H](NS(=O)(=O)c1ccc2oc3cc(-c4nc5ccccc5s4)ccc3c2c1)C(=O)O` [Compound 293, (R)-2-(7-(benzo[d]thiazol-2-yl)dibenzo[b,d]furan-2-sulfonamido)-3-methylbutanoic acid], the concentration for half-maximal inhibition (IC50) stood at 21 nM.
Then `CC(C)[C@H](NS(=O)(=O)c1ccc2c(c1)oc1ccc(-c3noc(CC(C)(C)C)n3)cc12)C(=O)O` [Compound 261, (S)-3-methyl-2-(8-(5-neopentyl-1,2,4-oxadiazol-3-yl)dibenzo[b,d]furan-3-sulfonamido)butanoic acid], with 5.4 nM; and `CCCn1cc(-c2ccc3oc4cc(S(=O)(=O)N[C@H](C(=O)O)C(C)C)ccc4c3c2)cn1` [Compound 21, (S)-3-methyl-2-(8-(1-propyl-1H-pyrazol-4-yl)dibenzo[b,d]furan-3-sulfonamido)butanoic acid], with < 1.5 nM.
On to `CC(C)[C@H](NS(=O)(=O)c1ccc2c(c1)oc1ccc(-c3nn[nH]n3)cc12)C(=O)O` [Compound 130, (S)-2-(8-(2H-tetrazol-5-yl)dibenzo[b,d]furan-3-sulfonamido)-3-methylbutanoic acid], for which the half-inhibitory concentration (IC50) is 1900 nM.
As to `CC(C)[C@H](NS(=O)(=O)c1ccc2c(c1)oc1ccc(-c3ccc(F)s3)cc12)C(=O)O` [Compound 124, (S)-2-(8-(5-fluorothiophen-2-yl)dibenzo[b,d]furan-3-sulfonamido)-3-methylbutanoic acid], the IC50 was < 1.5 nM.
In the case of `Cc1nnc(-c2ccc3c(c2)oc2ccc(S(=O)(=O)N[C@@H](C(=O)O)C(C)C)cc23)s1` [Compound 292, (R)-3-methyl-2-(7-(5-methyl-1,3,4-thiadiazol-2-yl)dibenzo[b,d]furan-2-sulfonamido)butanoic acid], it took 43 nM to reach half-maximal inhibition (IC50).
In the case of `CC(C)[C@H](NS(=O)(=O)c1ccc2c(c1)oc1ccc(-c3sccc3CN(C)C)cc12)C(=O)O` [Compound 49, (S)-2-(8-(3-((dimethylamino)methyl)thiophen-2-yl)dibenzo[b,d]furan-3-sulfonamido)-3-methylbutanoic acid] it was 228 nM.
In the case of `CCc1ccc(-c2cc(-c3ccc4c(c3)oc3cc(S(=O)(=O)N[C@H](C(=O)O)C(C)C)ccc34)sc2CC)s1` [Compound 166, (S)-2-(7-(2′,5-diethyl-2,3′-bithiophen-5′-yl)dibenzo[b,d]furan-3-sulfonamido)-3-methylbutanoic acid] it was 93 nM; in that of `COc1ccc(-c2ccc3oc4cc(S(=O)(=O)N[C@H](C(=O)O)C(C)C)ccc4c3c2)cc1` [Compound 310, (S)-2-(8-(4-methoxyphenyl)dibenzo[b,d]furan-3-sulfonamido)-3-methylbutanoic acid], < 1.5 nM; in that of `CC(C)[C@H](NS(=O)(=O)c1ccc2c(c1)oc1ccc(-c3noc(C4CCOCC4)n3)cc12)C(=O)O` [Compound 260, (S)-3-methyl-2-(8-(5-(tetrahydro-2H-pyran-4-yl)-1,2,4-oxadiazol-3-yl)dibenzo[b,d]furan-3-sulfonamido)butanoic acid], 1.7 nM.
As for `COc1ncc(-c2ccc3c(c2)oc2ccc(S(=O)(=O)N[C@@H](C(=O)O)C(C)C)cc23)cn1` [Compound 168, (R)-2-(7-(2-methoxypyrimidin-5-yl)dibenzo[b,d]furan-2-sulfonamido)-3-methylbutanoic acid], the IC50 turned out to be 1.5 nM.
For `CC(C)[C@H](NS(=O)(=O)c1ccc2c(c1)oc1ccc(-c3cn[nH]c3)cc12)C(=O)O` [Compound 23, (S)-2-(8-(1H-pyrazol-4-yl)dibenzo[b,d]furan-3-sulfonamido)-3-methylbutanoic acid], the half-maximal inhibitory concentration (IC50) was < 1.5 nM.

The IC50 is the midpoint of a concentration-inhibition curve. Read a high IC50 as weaker potency.

For the origin of these results see patent US20100227859A1, “TRICYCLIC COMPOUNDS AS MATRIX METALLOPROTEINASE INHIBITORS” (priority 2007, published 2010).
